From PubChem BioAssay (NCI)
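1) Cells in 96-well plates. 2) Compound, 48 h, 5 concentrations. 3) Linear interpolation between surrounding doses. 4) Unreached endpoint = highest concentration. GI50: concentration for 50% inhibition of growth. Definition used: TGI = concentration required for complete inhibition of growth.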

Columns and labels:
Test in all cases: NCI anticancer screen, dose series, 48 h
[1] = system: 786-0 renal
[2] = system: A498 renal
[3] = system: A549 NSCLC
[4] = system: ACHN renal
[5] = system: BT-549 breast
[6] = system: CAKI-1 renal
[7] = system: CCRF-CEM leukemia
[8] = system: COLO 205 colon
[9] = system: DU-145 prostate
[10] = system: EKVX NSCLC
[11] = system: HCC-2998 colon
[12] = system: HCT-116 colon
[13] = system: HCT-15 colon
[14] = system: HOP-62 NSCLC
[15] = system: HOP-92 NSCLC
[16] = system: HS 578T breast
[17] = system: HT29 colon
[18] = system: IGROV1 ovarian
[19] = system: K-562 leukemia
[20] = system: KM12 colon
[21] = system: LOX IMVI melanoma
[22] = system: M14 melanoma
[23] = system: MALME-3M melanoma
[24] = system: MCF7 breast
[25] = system: MDA-MB-231 breast
[26] = system: MDA-MB-435
[27] = system: MOLT-4 leukemia
[28] = system: NCI-H226 lung
[29] = system: NCI-H23 lung
[30] = system: NCI-H460 lung
[31] = system: NCI-H522 lung
[32] = system: NCI/ADR-RES ovarian
[33] = system: OVCAR-3 ovarian
[34] = system: OVCAR-4 ovarian
[35] = system: OVCAR-5 ovarian
[36] = system: OVCAR-8 ovarian
[37] = system: PC-3 prostate
[38] = system: RPMI-8226 leukemia
[39] = system: SF-268 CNS
[40] = system: SK-MEL-2 melanoma
[41] = system: SK-MEL-28 melanoma
[42] = system: SK-MEL-5 melanoma
[43] = system: SK-OV-3 ovarian
[44] = system: SN12C renal
[45] = system: SNB-19 CNS
[46] = system: SR leukemia
[47] = system: SW-620 colon
[48] = system: T-47D breast
[49] = system: TK-10 renal
[50] = system: U251 CNS
[51] = system: UACC-257 melanoma
[52] = system: UACC-62 melanoma
[53] = system: UO-31 renal
[54] = system: RXF 393 renal
[55] = system: SF-295 CNS
[56] = system: SF-539 CNS
[57] = system: SNB-75 CNS

`COc1ccc2nc(NC(=O)COc3cc(/C=C\c4cc(OC)c(OC)c(OC)c4)ccc3OC)sc2c1` was tested, and the GI50 [1] was 7.52 µM, the TGI [1] was greater than 100 µM and the GI50 [2] was 3.5 µM. The TGI [2] was greater than 100 µM, the GI50 [3] was 5.18 µM and the TGI [3] was greater than 100 µM. The GI50 [4] was 7.77 µM, the TGI [4] was greater than 100 µM and the GI50 [5] was 21.2 µM. The TGI [5] was greater than 100 µM, the GI50 [6] was 3.2 µM and the TGI [6] was greater than 100 µM. For the same molecule, the GI50 [7] was 3.87 µM, the TGI [7] was greater than 100 µM and the GI50 [8] was 3.89 µM. For the same molecule, the TGI [8] was greater than 100 µM, the GI50 [9] was 2.04 µM and the TGI [9] was 6.96 µM. The GI50 [10] was 5.11 µM, the TGI [10] was greater than 100 µM and the GI50 [11] was 7.35 µM. The TGI [11] was greater than 100 µM, the GI50 [12] was 3.7 µM and the TGI [12] was greater than 100 µM. For the same molecule, the GI50 [13] was 2.89 µM, the TGI [13] was greater than 100 µM and the GI50 [14] was 23.3 µM. For the same molecule, the TGI [14] was greater than 100 µM, the GI50 [15] was 6.28 µM and the TGI [15] was greater than 100 µM. For the same molecule, the GI50 [16] was 4.15 µM, the TGI [16] was greater than 100 µM and the GI50 [17] was 3.34 µM. For the same molecule, the TGI [17] was greater than 100 µM, the GI50 [18] was 7 µM and the TGI [18] was greater than 100 µM. It also gave a GI50 [19] of 3.6 µM, a TGI [19] greater than 100 µM and a GI50 [20] of 3.12 µM. For the same molecule, the TGI [20] was 21.2 µM, the GI50 [21] was 4.17 µM and the TGI [21] was greater than 100 µM. For the same molecule, the GI50 [22] was 4.33 µM, the TGI [22] was greater than 100 µM and the GI50 [23] was greater than 100 µM. It also gave a TGI [23] greater than 100 µM, a GI50 [24] of 2.88 µM and a TGI [24] greater than 100 µM. The GI50 [25] was 5.4 µM, the TGI [25] was greater than 100 µM and the GI50 [26] was 1.16 µM. For the same molecule, the TGI [26] was 6.44 µM, the GI50 [27] was 3.87 µM and the TGI [27] was greater than 100 µM. For the same molecule, the GI50 [28] was 4.51 µM, the TGI [28] was greater than 100 µM and the GI50 [29] was 3.91 µM. It also gave a TGI [29] greater than 100 µM, a GI50 [30] of 3.73 µM and a TGI [30] greater than 100 µM. It also gave a GI50 [31] of 3.09 µM, a TGI [31] greater than 100 µM and a GI50 [32] of 2.3 µM. For the same molecule, the TGI [32] was 7.46 µM, the GI50 [33] was 2.17 µM and the TGI [33] was 5.02 µM. For the same molecule, the GI50 [34] was 5.31 µM, the TGI [34] was greater than 100 µM and the GI50 [35] was 5.89 µM. For the same molecule, the TGI [35] was greater than 100 µM, the GI50 [36] was 5.28 µM and the TGI [36] was greater than 100 µM. For the same molecule, the GI50 [37] was 4.45 µM, the TGI [37] was greater than 100 µM and the GI50 [38] was 5.43 µM. It also gave a TGI [38] greater than 100 µM, a GI50 [39] of 4.31 µM and a TGI [39] greater than 100 µM. It also gave a GI50 [40] of 4.07 µM, a TGI [40] greater than 100 µM and a GI50 [41] of 4.41 µM. The TGI [41] was greater than 100 µM, the GI50 [42] was 2.68 µM and the TGI [42] was 38.4 µM. The GI50 [43] was 4.69 µM, the TGI [43] was greater than 100 µM and the GI50 [44] was 5.75 µM. For the same molecule, the TGI [44] was greater than 100 µM, the GI50 [45] was 6.3 µM and the TGI [45] was greater than 100 µM. The GI50 [46] was 3.69 µM, the TGI [46] was greater than 100 µM and the GI50 [47] was 5.1 µM. For the same molecule, the TGI [47] was greater than 100 µM, the GI50 [48] was 4.03 µM and the TGI [48] was greater than 100 µM. It also gave a GI50 [49] of 7.54 µM, a TGI [49] greater than 100 µM and a GI50 [50] of 4 µM. It also gave a TGI [50] greater than 100 µM, a GI50 [51] of 63.9 µM and a TGI [51] greater than 100 µM. For the same molecule, the GI50 [52] was 5.93 µM, the TGI [52] was greater than 100 µM and the GI50 [53] was 4.31 µM. For the same molecule, the TGI [53] was greater than 100 µM.
For `CC(Cc1ccc(O)cc1)NCC(O)c1ccc(O)c(O)c1` (stereo unspecified), the TGI [1] was greater than 100 µM, the TGI [2] was greater than 100 µM and the TGI [3] was greater than 100 µM. For the same molecule, the TGI [4] was greater than 100 µM, the TGI [5] was greater than 100 µM and the TGI [6] was greater than 100 µM. For the same molecule, the TGI [7] was greater than 100 µM, the TGI [9] was greater than 100 µM and the TGI [10] was greater than 100 µM. For the same molecule, the TGI [12] was greater than 100 µM, the TGI [13] was greater than 100 µM and the TGI [14] was greater than 100 µM. It also gave a TGI [15] greater than 100 µM, a TGI [16] greater than 100 µM and a TGI [17] greater than 100 µM. It also gave a TGI [18] greater than 100 µM, a TGI [19] greater than 100 µM and a TGI [20] greater than 100 µM. The TGI [21] was greater than 100 µM, the TGI [22] was greater than 100 µM and the TGI [23] was greater than 100 µM. It also gave a TGI [24] greater than 100 µM, a TGI [25] greater than 100 µM and a TGI [26] greater than 100 µM. For the same molecule, the TGI [27] was greater than 100 µM, the TGI [28] was greater than 100 µM and the TGI [29] was greater than 100 µM. The TGI [30] was greater than 100 µM, the TGI [31] was greater than 100 µM and the TGI [32] was greater than 100 µM. For the same molecule, the TGI [33] was greater than 100 µM, the TGI [34] was greater than 100 µM and the TGI [35] was greater than 100 µM. The TGI [36] was greater than 100 µM, the TGI [37] was greater than 100 µM and the TGI [38] was greater than 100 µM. For the same molecule, the TGI [54] was greater than 100 µM, the TGI [39] was greater than 100 µM and the TGI [55] was greater than 100 µM. For the same molecule, the TGI [56] was greater than 100 µM, the TGI [40] was greater than 100 µM and the TGI [41] was greater than 100 µM. For the same molecule, the TGI [42] was greater than 100 µM, the TGI [43] was greater than 100 µM and the TGI [44] was greater than 100 µM. The TGI [45] was greater than 100 µM, the TGI [57] was greater than 100 µM and the TGI [46] was greater than 100 µM. It also gave a TGI [47] greater than 100 µM, a TGI [48] greater than 100 µM and a TGI [49] greater than 100 µM. For the same molecule, the TGI [50] was greater than 100 µM, the TGI [51] was greater than 100 µM and the TGI [52] was greater than 100 µM. For the same molecule, the TGI [53] was greater than 100 µM.
